Experimental data taken from US9873690B2, “3-indol substituted derivatives, pharmaceutical compositions and methods for use” (Pfizer Inc., priority 2015, dated 2018).

Target: T1, hTDO2 (Homo sapiens, UniProt P48775)
T1 construct: endogenous in cells; host or cells: A172 human brain glioblastoma cells (ATCC CRL-1620)
Assay: Cellular assay for TDO2 activity determination in A172 cells
Assay type: cell-based
Details: human glioblastoma A172 cells naturally expressing hTDO2; overnight incubation; kynurenine by absorbance at 480 nm
Method in brief: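 A172 glioblastoma cells endogenously expressing hTDO2, 1.25×10^4 cells/well, incubated overnight at 37 °C, 5% CO2 in IMDM with 2% FBS and ten compound concentrations. Supernatant kynurenine measured after TCA treatment and Ehrlich's reagent (4-dimethylaminobenzaldehyde) by absorbance at 480 nm against a kynurenine standard curve, then curve-fitted.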

T1 sequence (P48775 whole entry): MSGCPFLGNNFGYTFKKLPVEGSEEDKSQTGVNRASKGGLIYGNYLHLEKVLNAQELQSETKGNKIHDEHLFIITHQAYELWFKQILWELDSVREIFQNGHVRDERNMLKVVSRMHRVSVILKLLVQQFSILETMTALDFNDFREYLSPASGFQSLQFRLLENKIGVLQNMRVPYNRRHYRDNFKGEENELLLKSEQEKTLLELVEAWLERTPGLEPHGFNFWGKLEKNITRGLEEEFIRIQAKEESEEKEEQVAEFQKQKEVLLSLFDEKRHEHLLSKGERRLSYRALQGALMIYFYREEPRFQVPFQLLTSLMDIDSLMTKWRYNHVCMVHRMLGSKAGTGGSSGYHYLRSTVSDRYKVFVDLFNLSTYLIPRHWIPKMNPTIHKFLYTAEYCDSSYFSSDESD

CC(C)C1NS(=O)(=O)c2ccc(-c3c[nH]c4cc(F)ccc34)cc21 (single isomer, unassigned; (-)) [Example 9, (−)-5-(6-fluoro-1H-indol-3-yl)-3-isopropyl-2,3-dihydrobenzo-[d]isothiazole 1,1-dioxide] and O=S1(=O)NC(CO)c2cc(-c3c[nH]c4cc(F)ccc34)ccc21 (single isomer, unassigned; (-)) [Example 12, (−)-5-(6-fluoro-1H-indol-3-yl)-3-(hydroxymethyl)-2,3-dihydrobenzo[d]isothiazole 1,1-dioxide] are within 1.5-fold of each other in IC50: 82 nM for the first, 74 nM for the second.

First: O=S1(=O)NC(C2CC2)c2cc(-c3c[nH]c4cc(F)ccc34)ccc21 (single isomer, unassigned; (-)) [Example 11, (−)-3-cyclopropyl-5-(6-fluoro-1H-indol-3-yl)-2,3-dihydrobenzo[d]isothiazole 1,1-dioxide]
Second: NCC1NS(=O)(=O)c2ccc(-c3c[nH]c4cc(F)ccc34)cc21 (single isomer, unassigned; (-)) [Example 20, (−)-3-(aminomethyl)-5-(6-fluoro-1H-indol-3-yl)-2,3-dihydrobenzo[d]isothiazole 1,1-dioxide]
The IC50 of the first is 4.2-fold lower: 103 nM for the first, 430 nM for the second.

Going from NC(=O)C1NS(=O)(=O)c2ccc(-c3c[nH]c4cc(F)ccc34)cc21 (single isomer, unassigned; (-)) [Example 15, (−)-5-(6-fluoro-1H-indol-3-yl)-2,3-dihydrobenzo[d]-Isothiazole-3-carboxamide 1,1-dioxide] to CNC(=O)C1NS(=O)(=O)c2ccc(-c3c[nH]c4cc(F)ccc34)cc21 (single isomer, unassigned; (-)) [Example 17, (−)-5-(6-fluoro-1H-indol-3-yl)-N-methyl-2,3-dihydrobenzo[d]isothiazole-3-carboxamide 1,1-dioxide], the IC50 rises from 2070 nM to 10000 nM (4.8-fold). The first is the more potent here.

Going from COC(=O)NCC1NS(=O)(=O)c2ccc(-c3c[nH]c4cc(F)ccc34)cc21 (single isomer, unassigned; (-)) [Example 21, (−)-methyl ((5-(6-fluoro-1H-indol-3-yl)-1,1-dioxido-2,3-dihydrobenzo[d]isothiazol-3-yl)methyl)carbamate] to CC(=O)NCC1NS(=O)(=O)c2ccc(-c3c[nH]c4cc(F)ccc34)cc21 (single isomer, unassigned; (-)) [Example 23, (−)-N-((5-(6-fluoro-1H-indol-3-yl)-1,1-dioxido-2,3-dihydrobenzo[d]isothiazol-3-yl)methyl)acetamide], the IC50 rises from 156 nM to 1020 nM (6.5-fold).

Going from CN(C)CC1NS(=O)(=O)c2ccc(-c3c[nH]c4cc(F)ccc34)cc21 (single isomer, unassigned; (-)) [Example 25, (−)-3-((dimethylamino)methyl)-5-(6-fluoro-1H-indol-3-yl)-2,3-dihydrobenzo[d]isothiazole 1,1-dioxide] to CC(=O)N(C)CC1NS(=O)(=O)c2ccc(-c3c[nH]c4cc(F)ccc34)cc21 (single isomer, unassigned; (-)) [Example 28, (−)-N-((5-(6-fluoro-1H-indol-3-yl)-1,1-dioxido-2,3-dihydrobenzo[d]isothiazol-3-yl)methyl)-N-methylacetamide], the IC50 falls from 4980 nM to 505 nM (9.9-fold).

First: O=S1(=O)NC(CCO)c2cc(-c3c[nH]c4cc(F)ccc34)ccc21 (single isomer, unassigned; (-)) [Example 29, (−)-5-(6-fluoro-1H-indol-3-yl)-3-(2-hydroxyethyl)-2,3-dihydrobenzo[d]isothiazole 1,1-dioxide]
Second: CC1c2cc(-c3c[nH]c4cc(F)ccc34)ccc2S(=O)(=O)N1CCO (single isomer, unassigned; (-)) [Example 64, (−)-5-(6-fluoro-1H-indol-3-yl)-2-(2-hydroxyethyl)-3-methyl-2,3-dihydrobenzo[d]isothiazole 1,1-dioxide]
The IC50 of the first is 2.6-fold lower: 126 nM for the first, 322 nM for the second. The first is the more potent here.

Going from CNC(=O)CCN1C(C)c2cc(-c3c[nH]c4cc(F)ccc34)ccc2S1(=O)=O (single isomer, unassigned; (-)) [Example 46, (−)-3-(5-(6-fluoro-1H-indol-3-yl)-3-methyl-1,1-dioxidobenzo[d]isothiazol-2(3H)-yl)-N-methylpropanamide] to CC1c2cc(-c3c[nH]c4cc(F)ccc34)ccc2S(=O)(=O)N1CCC(N)=O (single isomer, unassigned; (-)) [Example 48, (−)-3-(5-(6-fluoro-1H-indol-3-yl)-3-methyl-1,1-dioxidobenzo[d]isothiazol-2(3H)-yl)propanamide], the IC50 falls from 328 nM to 77 nM (4.3-fold). The second is the more potent here.

First: CC1c2cc(-c3c[nH]c4cc(F)ccc34)ccc2S(=O)(=O)N1CCC(=O)N1CCNCC1 (single isomer, unassigned; (-)) [Example 50, (−)3-(5-(6-fluoro-1H-indol-3-yl)-3-methyl-1,1-dioxidobenzo[d]isothiazol-2(3H)-yl)-1-(piperazin-1-yl)propan-1-one]
Second: CC1c2cc(-c3c[nH]c4cc(F)ccc34)ccc2S(=O)(=O)N1CCN1CCNCC1=O (single isomer, unassigned; (-)) [Example 65, (−)1-(2-(5-(6-fluoro-1H-indol-3-yl)-3-methyl-1,1-dioxidobenzo[d]isothiazol-2(3H)-yl)ethyl)piperazin-2-one]
The IC50 of the first is 1.6-fold lower: 336 nM for the first, 546 nM for the second. The first is the more potent here.

First: CC1c2cc(-c3c[nH]c4cc(F)ccc34)ccc2S(=O)(=O)N1C1CCNCC1 (single isomer, unassigned; (-)) [Example 51, (−)-5-(6-fluoro-1H-indol-3-yl)-3-methyl-2-(piperidin-4-yl)-2,3-dihydrobenzo[d]isothiazole 1,1-dioxide]
Second: CC1c2cc(-c3c[nH]c4cc(F)ccc34)ccc2S(=O)(=O)N1CC1CCNCC1 (single isomer, unassigned; (-)) [Example 77, (−) 5-(6-fluoro-1H-indol-3-yl)-3-methyl-2-(piperidin-4-ylmethyl)-2,3-dihydrobenzo[d]isothiazole 1,1-dioxide]
The IC50 of the first is 2.2-fold lower: 186 nM for the first, 415 nM for the second.

Going from CC1c2cc(-c3c[nH]c4cc(F)ccc34)ccc2S(=O)(=O)N1CCS(C)(=O)=O (single isomer, unassigned; (-)) [Example 54, (−)-5-(6-fluoro-1H-indol-3-yl)-3-methyl-2-(2-(methylsulfonyl)ethyl)-2,3-dihydrobenzo[d]isothiazole 1,1-dioxide] to CC1c2cc(-c3c[nH]c4cc(F)ccc34)ccc2S(=O)(=O)N1CCS(N)(=O)=O (single isomer, unassigned; (-)) [Example 62, (−)-2-(5-(6-fluoro-1H-indol-3-yl)-3-methyl-1,1-dioxidobenzo[d]-isothiazol-2(3H)-yl)ethane-1-sulfonamide], the IC50 falls from 233 nM to 67 nM (3.5-fold). The second is the more potent here.

CC1c2cc(-c3c[nH]c4cc(F)ccc34)ccc2S(=O)(=O)N1CC[S+](C)[O-] (single isomer, unassigned; (-)) [Example 56, (−)-5-(6-fluoro-1H-indol-3-yl)-3-methyl-2-(2-(methylsulfinyl)ethyl)-2,3-dihydrobenzo[d]isothiazole 1,1-dioxide] and CNS(=O)(=O)CCN1C(C)c2cc(-c3c[nH]c4cc(F)ccc34)ccc2S1(=O)=O (single isomer, unassigned; (-)) [Example 59, (−)-2-(5-(6-fluoro-1H-indol-3-yl)-3-methyl-1,1-dioxidobenzo[d]isothiazol-2(3H)-yl)-N-methylethane-1-sulfonamide] are within 1.5-fold of each other in IC50: 306 nM for the first, 425 nM for the second.

First: CC1c2cc(-c3c[nH]c4cc(F)ccc34)ccc2S(=O)(=O)N1CC[S+](C)[O-] (single isomer, unassigned; (-)) [Example 57, (−)-5-(6-fluoro-1H-indol-3-yl)-3-methyl-2-(2-(methylsulfinyl)ethyl)-2,3-dihydrobenzo[d]isothiazole 1,1-dioxide]
Second: Cc1cc(O)n(CCN2C(C)c3cc(-c4c[nH]c5cc(F)ccc45)ccc3S2(=O)=O)n1 (single isomer, unassigned; (-)) [Example 68, (−)-5-(6-fluoro-1H-indol-3-yl)-2-(2-(5-hydroxy-3-methyl-1H-pyrazol-1-yl)ethyl)-3-methyl-2,3-dihydrobenzo[d]isothiazole 1,1-dioxide]
The IC50 of the first is 57-fold lower: 61 nM for the first, 3460 nM for the second.

Going from CC1c2cc(-c3c[nH]c4cc(F)ccc34)ccc2S(=O)(=O)N1CCN1CCOC1=O (single isomer, unassigned; (-)) [Example 70, (−)-3-(2-(5-(6-fluoro-1H-indol-3-yl)-3-methyl-1,1-dioxidobenzo[d]isothiazol-2(3H)-yl)ethyl)oxazolidin-2-one] to CC1c2cc(-c3c[nH]c4cc(F)ccc34)ccc2S(=O)(=O)N1C[C@@]1(C)CCC(=O)N1 (single isomer, unassigned; (-)) [Example 83], the IC50 rises from 50 nM to 152 nM (3-fold).

CC(=O)N1CCC(N2C(C)c3cc(-c4c[nH]c5cc(F)ccc45)ccc3S2(=O)=O)CC1 (single isomer, unassigned; (-)) [Example 72, (−)-1-(4-(5-(6-fluoro-1H-indol-3-yl)-3-methyl-1,1-dioxidobenzo[d]isothiazol-2(3H)-yl)piperidin-1-yl)ethanone] and CC(=O)N1CCC(N2C(C)c3cc(-c4c[nH]c5cc(F)ccc45)ccc3S2(=O)=O)C1 (single isomer, unassigned; (-)) [Example 75, (−)-1-(3-(5-(6-fluoro-1H-indol-3-yl)-3-methyl-1,1-dioxidobenzo[d]isothiazol-2(3H)-yl)pyrrolidin-1-yl)ethanone] are within 1.5-fold of each other in IC50: 64 nM for the first, 49 nM for the second.

Compared with CC(=O)N1CCC(N2C(C)c3cc(-c4c[nH]c5cc(F)ccc45)ccc3S2(=O)=O)C1 (single isomer, unassigned; (-)) [Example 76, (−)-1-(3-(5-(6-fluoro-1H-indol-3-yl)-3-methyl-1,1-dioxidobenzo[d]isothiazol-2(3H)-yl)pyrrolidin-1-yl)ethanone], CC1c2cc(-c3c[nH]c4cc(F)ccc34)ccc2S(=O)(=O)N1CC1CCN(C)CC1 (single isomer, unassigned; (-)) [Example 79, (−)-5-(6-fluoro-1H-indol-3-yl)-3-methyl-2-((1-methylpiperidin-4-yl)methyl)-2,3-dihydrobenzo[d]isothiazole 1,1-dioxide] is 4.2-fold higher in IC50: 61 nM for the first, 258 nM for the second. The first is the more potent here.
